The source of these data is patent publication US8791094B2, “Treatment of prostate cancer” (Tokai Pharmaceuticals, Inc., priority 2009, dated 2014).

The subject of one series is LNCaP. The series can be described thus: Inhibition of testosterone-induced proliferation, LNCaP. The format is cell-based, human. The note with it: LNCaP stimulated with 1 nM DHT. On the procedure:
(§1) Human prostate cancer cell lines (LNCaP and LAPC-4) were grown in culture and stimulated with 1 nM dihydrotestosterone (DHT). This concentration of DHT stimulated the proliferation of prostate cancer cells.

A short description of series [1]: Nonclinical safety evaluation (cell-based and animal models). The conditions noted are these: nonclinical data. The source says:
This is a first-in-man trial of Compound 1 and potential toxic effects in humans are not yet fully known. […] An additional known class effect, apparent mineralocorticoid excess (AME), was not seen in nonclinical studies. This trial has been designed with the adverse nonclinical findings, theoretical MOA, and consideration of known class effect issues in mind. The trial evaluates potential clinical benefit and provides proof of concept while minimizing risk to subjects.

In another series the test system is off-target receptors. The series can be described thus: In vitro safety testing: off-target receptors. The format is binding.
A further series relates to LAPC-4. The series can be described thus: Inhibition of testosterone-induced proliferation, LAPC-4. Type of series: cell-based, human. The conditions noted are these: LAPC-4 stimulated with 1 nM DHT. The method, then: as §1
A further series in a line: in vivo. The note with it: dog. The source says: On an AUC basis the human starting dose is predicted to be 16 times lower than the NOAEL dose in dogs.
In a further series the target is T1, CYP17 (Homo sapiens, UniProt P05093).
T1 construct: made in house; host or cells: E. coli
T1 sequence (P05093 1-508): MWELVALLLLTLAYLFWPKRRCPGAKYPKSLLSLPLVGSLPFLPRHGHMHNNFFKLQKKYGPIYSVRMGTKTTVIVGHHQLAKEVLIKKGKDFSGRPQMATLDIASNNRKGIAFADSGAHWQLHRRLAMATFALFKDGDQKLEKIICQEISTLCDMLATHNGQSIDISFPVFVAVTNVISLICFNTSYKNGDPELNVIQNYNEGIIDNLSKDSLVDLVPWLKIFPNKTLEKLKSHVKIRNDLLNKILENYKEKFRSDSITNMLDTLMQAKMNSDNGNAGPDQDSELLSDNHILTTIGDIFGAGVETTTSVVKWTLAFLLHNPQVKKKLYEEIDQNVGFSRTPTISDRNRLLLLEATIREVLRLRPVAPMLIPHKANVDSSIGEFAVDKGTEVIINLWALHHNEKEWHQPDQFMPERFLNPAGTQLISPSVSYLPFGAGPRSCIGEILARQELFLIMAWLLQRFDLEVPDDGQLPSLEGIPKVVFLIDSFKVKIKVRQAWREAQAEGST
The series can be described thus: Inhibition of lyase activity (CYP17). The note with it: CYP17 expressed by transfected E. coli; radiolabelled 17α-hydroxypregnenolone substrate. Type of series: biochemical. On the procedure: Intact CYP17 expressed by transfected E. coli was isolated and purified as an enzyme source. Radiolabelled 17α-hydroxypregnenolone as the substrate. CYP17 activity was measured by the amount of tritiated acetic acid formed during the cleavage of the C-21 side chain of the substrate.

A short description of series [2]: Chronic administration toxicity in rats. Type of series: in vivo. The note with it: administered chronically to rats.
Another series deals with cytochrome P450 systems. The series can be described thus: In vitro safety testing: cytochrome P450 systems. The format is in vitro ADME.
Series [3] can be described thus: Oral bioavailability (nonclinical). The note with it: in vivo.
Series [4] relates to LAPC4 prostate cancer cell tumors. Put plainly: Growth of human prostate cancer xenografts in SCID mice. Type of series: in vivo. On the procedure:
Xenografts of LAPC4 prostate cancer cell tumors were implanted in SCID mice. […] Tumor size was measured weekly and compared with control mice that received vehicle, Casodex® or castration only.

Series [5] in a line: In vitro safety testing: genotoxicity.
Another series relates to PSA. Put plainly: Clinical study in chemotherapy naive CRPC: PSA response. The format is in vivo, human. The method, then:
The primary efficacy endpoint is the percent of subjects with 50% or greater decrease in PSA from baseline to 12 weeks, or PSA nadir (whichever comes first). Frequency and percentage are calculated for each treatment group. The primary analysis is also repeated using the PP Population.
A clinical study was performed according to the protocol of Example 6. Compound (1) was administered to four cohorts, each in a different amount.

Regarding `C[C@]12CC[C@H](O)CC1=CCC1C2CC[C@]2(C)C(n3cnc4ccccc43)=CCC12` (stereo partly drawn) [Compound (1), 3-β-Hydroxy-17-(1H-benzimidazol-1-yl)androsta-5,16-diene], the “inhibition of testosterone induced proliferation” value in the series on LNCaP and in the series on LAPC-4 was “dose-dependent inhibition” throughout. For the same molecule, the “only safety signal seen” value in series [1] is recorded as “hepatoxicity”. The “toxicity in cell-based and animal models” value in series [1] is given as “minimal toxicity”. Also, the “interaction with off-target receptors” value in the series with off-target receptors is on record as “only at high micromolar concentrations”. In “in vivo”, the NOAEL (in general, the highest dose or exposure tested at which no adverse effect was seen) turned out to be 150 mg/kg. Moreover, half-maximal inhibition at CYP17 (IC50) was put at 300 nM. Besides, the toxic responses result in series [2] was “fails to elicit toxic responses”. In addition, in the series on cytochrome P450 systems, the “interference with activity of cytochrome P450 systems known to metabolize many drugs” value is on record as “does not interfere”. Moreover, the oral bioavailability entry in series [3] was “orally bioavailable”. Moreover, the tumor growth entry in series [4] (50 mg/kg BW SC twice daily, compared with castration) is given as “comparable or more pronounced decrease in tumor growth compared to castration”. Besides, in series [4] (SCID mouse models, levels corresponding to human subcutaneous doses of 140, 280, and 560 mg), the “size of androgen dependent human prostate tumors” value is recorded as “dramatic reduction”. Moreover, the genotoxicity entry in [5] is “does not have genotoxicity”. Besides, the “Percentage of Patients With a PSA Response” value in the series with PSA (Cohort 1, 650 mg/day, 6 patients treated) was 67% (4); in the series with PSA (Cohort 2, 975 mg/day, 6 patients treated), 67% (4); in the series with PSA (Cohort 3, 1300 mg/day, 6 patients treated), 83% (5); with PSA (Cohort 4, 1950 mg/day, 7 patients treated), 71% (5).
